From patent US9617256B2 (priority 2007, dated 2017)
In brackets after ≈: the same amount, converted by molar mass.

Tests used:
[1] = test system: APAE006 (strain of P. aeruginosa in which all efflux pumps are inactivated); experiment: microbe, parasite or virus in culture; format: cell-based; details: Pseudomonas aeruginosa, read-out: MIC APAE006, P. aeruginosa, all efflux pumps inactivated
In short: (§1)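 CLSI-guided microdilution: bacteria passaged overnight at 35° C. on Mueller-Hinton agar, tested in cation-adjusted broth at a final 3×10^5–7×10^5 CFU/mL across 2-fold drug dilutions, read after 18-24 h at 35° C.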

[2] = test system: APAE006 in the presence of 8 micrograms per milliliter of polymyxin B nonapeptide; format: cell-based, P. aeruginosa; details: in the presence of 8 micrograms per milliliter of polymyxin B nonapeptide
In short: as §1

[3] = test system: AECO001 (ATCC25922); experiment: MIC broth microdilution, AECO001; format: cell-based, E. coli; details: Escherichia coli, ATCC25922, read-out: MIC AECO001
In short: (§2)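 Inocula prepared from 0.5 McFarland suspensions (final 3×10^5–7×10^5 CFU/mL) were added to 2-fold drug dilution series in cation-adjusted Mueller-Hinton broth. Plates stood 18-24 hours at 35° C. under ambient air.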

[4] = test system: ASAU001 (laboratory strain of S. aureus, ATCC29213); experiment: MIC broth microdilution, ASAU001; format: cell-based; details: Staphylococcus aureus, ATCC29213, read-out: MIC ASAU001
In short: as §2

[5] = test system: AECO001 HSA AGP; experiment: MIC broth microdilution, AECO001 HSA AGP; format: cell-based, E. coli; details: Escherichia coli
In short: as §2

[6] = test system: AABA1060 (clinical isolate of Acinetobacter baumannii); experiment: MIC broth microdilution, AABA1060; format: cell-based; details: Acinetobacter baumannii, read-out: MIC AABA1060
In short: as §2

[7] = test system: APAE001 (ATCC27853); experiment: MIC broth microdilution, APAE001; format: cell-based, P. aeruginosa; details: Pseudomonas aeruginosa, ATCC27853, read-out: MIC APAE001, APAE001 is ATCC27853
In short: as §2

[8] = test system: AECO063 (ATCC25922 bearing an acrAB mutation); experiment: microbe, parasite or virus in culture; format: cell-based, E. coli; details: Escherichia coli, ATCC25922, read-out: MIC AECO063
In short: as §2

Row | Compound | MIC [1] | MIC APAE006 + PMBN [2] | MIC [3] | MIC [4] | MIC [5] | MIC [6] | MIC [7] | MIC [8]
1 | C[C@@H](N)[C@H](NC(=O)c1ccc(C#Cc2ccc(CN3CCC3)cc2)cc1)C(=O)NO [Example 118-1, N-((1S,2R)-2-Amino-1-hydroxycarbamoyl-propyl)-4-(4-azetidin-1-ylmethyl-phenylethynyl)-benzamide] | < 2 µg/mL | A (MIC's of 2.0 μg/mL or less = A) | 16 to 64 µg/mL (≈ 39.4 to 157 µM) | 16 to 64 µg/mL (≈ 39.4 to 157 µM) | 16 to 64 µg/mL (≈ 39.4 to 157 µM) | 16 to 64 µg/mL (≈ 39.4 to 157 µM) | 2 to 16 µg/mL (≈ 4.92 to 39.4 µM) | 2 to 16 µg/mL (≈ 4.92 to 39.4 µM)
2 | C[C@@H](N)[C@H](NC(=O)c1ccc(C#Cc2ccc(CN3CCc4[nH]ncc4C3)cc2)cc1)C(=O)NO [Example 118-2] | < 2 µg/mL | A (MIC's of 2.0 μg/mL or less = A) | < 2 µg/mL | 16 to 64 µg/mL (≈ 33.9 to 135 µM) | 16 to 64 µg/mL (≈ 33.9 to 135 µM) | 2 to 16 µg/mL (≈ 4.23 to 33.9 µM) | < 2 µg/mL | < 2 µg/mL
3 | C[C@@H](N)[C@H](NC(=O)c1ccc(C#Cc2ccc(CN3CCC(F)(F)C3)cc2)cc1)C(=O)NO [Example 118-3] | < 2 µg/mL | A (MIC's of 2.0 μg/mL or less = A) | < 2 µg/mL | 16 to 64 µg/mL (≈ 35 to 140 µM) | 2 to 16 µg/mL (≈ 4.38 to 35 µM) | 2 to 16 µg/mL (≈ 4.38 to 35 µM) | 2 to 16 µg/mL (≈ 4.38 to 35 µM) | < 2 µg/mL
4 | C[C@@H](N)[C@H](NC(=O)c1ccc(C#Cc2ccc(CNCC(C)(C)C)cc2)cc1)C(=O)NO [Example 118-4] | < 2 µg/mL | A (MIC's of 2.0 μg/mL or less = A) | < 2 µg/mL | > 64 µg/mL | 2 to 16 µg/mL (≈ 4.58 to 36.7 µM) | 16 to 64 µg/mL (≈ 36.7 to 147 µM) | < 2 µg/mL | < 2 µg/mL
5 | C[C@@H](N)[C@H](NC(=O)c1ccc(C#Cc2ccc(CNCC3CCCO3)cc2)cc1)C(=O)NO (some centres unmarked) [Example 118-5] | < 2 µg/mL | A (MIC's of 2.0 μg/mL or less = A) | 2 to 16 µg/mL (≈ 4.44 to 35.5 µM) | > 64 µg/mL | 2 to 16 µg/mL (≈ 4.44 to 35.5 µM) | 16 to 64 µg/mL (≈ 35.5 to 142 µM) | < 2 µg/mL | < 2 µg/mL
6 | C[C@@H](N)[C@H](NC(=O)c1ccc(C#Cc2ccc(CNC3CCCC3)cc2)cc1)C(=O)NO [Example 118-6] | < 2 µg/mL | A (MIC's of 2.0 μg/mL or less = A) | 2 to 16 µg/mL (≈ 4.6 to 36.8 µM) | 16 to 64 µg/mL (≈ 36.8 to 147 µM) | 2 to 16 µg/mL (≈ 4.6 to 36.8 µM) | 16 to 64 µg/mL (≈ 36.8 to 147 µM) | < 2 µg/mL | < 2 µg/mL
7 | C[C@@H](N)[C@H](NC(=O)c1ccc(C#Cc2ccc(CN3CCCOCC3)cc2)cc1)C(=O)NO [Example 118-7] | < 2 µg/mL | A (MIC's of 2.0 μg/mL or less = A) | < 2 µg/mL | 16 to 64 µg/mL (≈ 35.5 to 142 µM) | 2 to 16 µg/mL (≈ 4.44 to 35.5 µM) | 2 to 16 µg/mL (≈ 4.44 to 35.5 µM) | < 2 µg/mL | < 2 µg/mL
8 | C[C@@H](N)[C@H](NC(=O)c1ccc(C#Cc2ccc(CNCCC#N)cc2)cc1)C(=O)NO [Example 118-8] | < 2 µg/mL | A (MIC's of 2.0 μg/mL or less = A) | < 2 µg/mL | 16 to 64 µg/mL (≈ 38.1 to 153 µM) | 2 to 16 µg/mL (≈ 4.77 to 38.1 µM) | 2 to 16 µg/mL (≈ 4.77 to 38.1 µM) | < 2 µg/mL | < 2 µg/mL
9 | C[C@@H](N)[C@H](NC(=O)c1ccc(C#Cc2ccc(CNCCF)cc2)cc1)C(=O)NO [Example 118-9] | < 2 µg/mL | A (MIC's of 2.0 μg/mL or less = A) | < 2 µg/mL | 16 to 64 µg/mL (≈ 38.8 to 155 µM) | 2 to 16 µg/mL (≈ 4.85 to 38.8 µM) | 2 to 16 µg/mL (≈ 4.85 to 38.8 µM) | < 2 µg/mL | < 2 µg/mL
10 | C[C@@H](N)[C@H](NC(=O)c1ccc(C#Cc2ccc(CNCC(F)F)cc2)cc1)C(=O)NO [Example 119-1, N-((1S,2R)-2-Amino-1-hydroxycarbamoyl-propyl)-4-{4-[(2,2-difluoro-ethylamino)-methyl]-phenylethynyl}-benzamide] | < 2 µg/mL | A (MIC's of 2.0 μg/mL or less = A) | < 2 µg/mL | 16 to 64 µg/mL (≈ 37.2 to 149 µM) | 2 to 16 µg/mL (≈ 4.65 to 37.2 µM) | 2 to 16 µg/mL (≈ 4.65 to 37.2 µM) | < 2 µg/mL | < 2 µg/mL
